In US10308652B2, “Tricyclic heterocyclic compounds useful as inhibitors of TNF” (BRISTOL-MYERS SQUIBB COMPANY, priority 2015, dated 2019):

target: TNFα (Homo sapiens (Human), UniProt P01375); assay: TNF induced HEK-Blue assay; type: cell-based; details: TNFα 0.5 ng/ml; HEK-Blue-CD40L cells, NF-κB-driven secreted alkaline phosphatase reporter; 18 h
Protocol: TNF or CD40L-induced HEK-Blue Assay Test compounds serially diluted in DMSO were plated in an assay plate (Labcyte, Cat. #LP-0200) at final concentrations ranging from 0.004 μM to 25μM. TNFα (final concentration 0.5 ng/ml) or CD4OL (final concentration 30 ng/ml) in assay buffer [DMEM, 4.5 g/l glucose (Gibco, Cat. 21063-029), 10% FBS (Sigma, F4135), 1% Penicillin-Streptomycin (Gibco, Cat. 15140-122), 1% Anti-Anti (Gibco, Cat. 15240-112) and 2 mM L-glutamine (Gibco, Cat. 25030-081)] was then added to the assay plate. After a 30 minute pre-incubation at 37° C. and 5% CO2, HEK-Blue-CD40L cells (InvivoGen, Cat. Code hkb-cd40) containing a NF-κB-driven secreted alkaline phosphatase reporter gene were seeded into the assay plate at a density of 20,000 cells per well. This plate was then incubated for 18 h at 37° C. and 5% CO2. Secreted alkaline phosphatase expression was measured using QUANTI-Blue (InvivoGen, Cat. Code rep-qb1) according to manufacturer's specifications and the assay plate was read on a PerkinElmer Envision at 620 nm. Inhibition data for the test compound over a range of concentrations was plotted as percentage inhibition of the test compound (100%=maximum inhibition). IC50 values were determined after correcting for background [(sample read−mean of low control)/(mean of high control−mean of low control)] where by the low control is DMSO without stimulation and high control is DMSO with stimulation. The IC50 is defined as the concentration of test compound which produces 50% inhibition and was quantified using the 4 parameter logistic equation to fit the data.

Chain of TNFα (P01375 77-233): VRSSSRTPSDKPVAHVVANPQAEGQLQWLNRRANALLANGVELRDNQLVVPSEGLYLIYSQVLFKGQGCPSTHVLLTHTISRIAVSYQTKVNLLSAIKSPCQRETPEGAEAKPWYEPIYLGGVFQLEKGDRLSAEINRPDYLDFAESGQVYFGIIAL

Molecule	IC50 [µM]
CC(C)(O)c1ccc(-c2ccc3nc4c(n3n2)[C@H](c2ccccc2OC(F)F)NC[C@H]4O)cc1 [Example 5, (+/−)-Cis and trans-9-(2-(difluoromethoxy)phenyl)-2-(4-(2-hydroxypropan-2-yl)phenyl)-6,7,8,9-tetrahydropyrido[4′,3′:4,5]imidazo[1,2-b]pyridazin-6-ol]	1 to 10
(+/−)-trans-9-(2,5-dimethylphenyl)-2-(4-(2-hydroxypropan-2-yl)phenyl)-6,7,8,9-tetrahydropyrido[4′,3′:4,5]imidazo[1,2-b]pyridazin-6-ol [Example 53]	1 to 10
(+/−)-trans-9-(2-(difluoromethoxy)phenyl)-2-(4-(2-hydroxy-2-methylpropoxy)phenyl)-6,7,8,9-tetrahydropyrido[4′,3′:4,5]imidazo[1,2-b]pyridazin-6-ol [Example 52]	1 to 10
O[C@@H]1CN[C@H](c2ccccc2OC(F)F)c2c1nc1ccc(-c3ccc(C4(O)CC4)cc3)nn21 (racemic) [Example 36, (+/−)-cis-9-(2-(difluoromethoxy)phenyl)-2-(4-(1-hydroxycyclopropyl)phenyl)-6,7,8,9-tetrahydropyrido [4′,3′:4,5]imidazo[1,2-b]pyridazin-6-ol]	1 to 10
CC(C)Oc1ccc(-c2ccc3nc4c(n3n2)[C@@H](c2ccccc2OC(F)F)NC[C@H]4O)cc1 (racemic) [Example 32, (+/−)-cis-9-(2-(difluoromethoxy)phenyl)-2-(4-isopropoxyphenyl)-6,7,8,9-tetrahydropyrido[4′,3′:4,5]imidazo[1,2-b]pyridazin-6-ol]	1 to 10
O=C(c1ccc(-c2ccc3nc4c(n3n2)[C@@H](c2ccccc2OC(F)F)NC[C@H]4O)cc1Cl)N1CCOCC1 (racemic) [Example 47, (+/−)-cis-(2-chloro-4-(9-(2-(difluoromethoxy)phenyl)-6-hydroxy-6,7,8,9-tetrahydropyrido[4′,3′:4,5]imidazo[1,2-b]pyridazin-2-yl)phenyl)(morpholino)methanone]	1 to 10
NS(=O)(=O)c1ccc(-c2ccc3nc4c(n3n2)[C@@H](c2ccccc2OC(F)F)NC[C@H]4O)cc1 (racemic) [Example 46, (+/−)-cis-4-(9-(2-(difluoromethoxy)phenyl)-6-hydroxy-6,7,8,9-tetrahydropyrido[4′,3′:4,5]imidazo[1,2-b]pyridazin-2-yl)benzenesulfonamide]	1 to 10
COc1ccc(Cl)cc1[C@@H]1NC[C@@H](O)c2nc3ccc(-c4ccc(C(C)(C)O)cc4)nn3c21 (racemic) [Example 56, (+/−)-trans-9-(5-chloro-2-methoxyphenyl)-2-(4-(2-hydroxypropan-2-yl)phenyl)-6,7,8,9-tetrahydropyrido[4′,3′:4,5]imidazo[1,2-b]pyridazin-6-ol]	1 to 10

Other lines, results leading:

IC50 [µM]	Molecule
1 to 10	CC(C)(O)c1ccc(-c2ccc3nc4c(n3n2)[C@H](c2ccccc2OC(F)F)NC[C@H]4F)cc1 (racemic) [Example 9, (+/−)-trans-2-(4-(9-(2-(difluoromethoxy)phenyl)-6-fluoro-6,7,8,9-tetrahydropyrido[4′,3′:4,5]imidazo[1,2-b]pyridazin-2-yl)phenyl)propan-2-ol]
1 to 10	COc1cc(-c2ccc3nc4c(n3n2)[C@@H](c2ccccc2OC(F)F)NC[C@H]4O)ccc1OCC(C)(C)O (racemic) [Example 30, (+/−)-cis-9-(2-(difluoromethoxy)phenyl)-2-(4-(2-hydroxy-2-methylpropoxy)-3-methoxyphenyl)-6,7,8,9-tetrahydropyrido[4′,3′:4,5]imidazo[1,2-b]pyridazin-6-ol]
1 to 10	CC(C)(O)c1ccc(-c2ccc3nc4c(n3n2)[C@@H](c2cc(Cl)ccc2OC(F)F)NC[C@H]4O)cc1 (racemic) [Example 54, (+/−)-cis-9-(5-chloro-2-(difluoromethoxy)phenyl)-2-(4-(2-hydroxypropan-2-yl)phenyl)-6,7,8,9-tetrahydropyrido[4′,3′:4,5]imidazo[1,2-b]pyridazin-6-ol]
< 1	COc1ccc(-c2ccc3nc4c(n3n2)C(c2ccccc2OC(F)F)NCC4)cn1 (racemic) [Example 1, (+/−)-9-(2-(Difluoromethoxy)phenyl)-2-(6-methoxypyridin-3-yl)-6,7,8,9-tetrahydropyrido[4′,3′:4,5]imidazo[1,2-b]pyridazine]
< 1	CC(C)(C)COc1ccc(-c2ccc3nc4c(n3n2)[C@@H](c2ccccc2OC(F)F)NC[C@H]4O)cc1 (racemic) [Example 42, (+/−)-cis-9-(2-(difluoromethoxy)phenyl)-2-(4-(neopentyloxy)phenyl)-6,7,8,9-tetrahydropyrido[4′,3′:4,5]imidazo[1,2-b]pyridazin-6-ol]
< 1	CC(C)(O)c1ccc(-c2ccc3nc4c(n3n2)C(c2ccccc2OC(F)F)OCC4)cc1 (stereo not shown) [Example 62, 2-(4-(9-(2-(Difluoromethoxy)phenyl)-7,9-dihydro-6H-pyrano[4′,3′:4,5]imidazo[1,2-b]pyridazin-2-yl)phenyl)propan-2-ol]
< 1	CC(C)(O)c1ccc(-c2ccc3nc4c(n3n2)[C@@H](c2ccccc2OC(F)F)NC[C@H]4F)cc1 [Example 13, cis-(1R,4R)-2-(4-(9-(2-(difluoromethoxy)phenyl)-6-fluoro-6,7,8,9-tetrahydropyrido[4′,3′:4,5]imidazo[1,2-b]pyridazin-2-yl)phenyl)propan-2-ol]
< 1	CC(C)(O)c1ccc(-c2ccc3nc4c(n3n2)[C@@H](c2ccc(F)cc2C(F)(F)F)NC[C@H]4O)cc1 (racemic) [Example 39, (+/−)-cis-9-(4-fluoro-2-(trifluoromethyl)phenyl)-2-(4-(2-hydroxypropan-2-yl)phenyl)-6,7,8,9-tetrahydropyrido[4′,3′:4,5]imidazo[1,2-b]pyridazin-6-ol]
